Reference: ChEMBL document CHEMBL1201862, “PubChem BioAssay data set” (2004)
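Interpolation was linear, between the two tested concentrations surrounding the appropriate level; five concentrations were tested over 48 hours in 96-well plates. At the GI50, growth is halved.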 Calls of active or inactive are those of the source. Cut-off read from the data, not from the text of the source: active = GI50 up to about 1.1 µM and inactive = higher. Square brackets hold non-standard residues; d marks the D form. Peptide text beside a SMILES is read from it. * marks the point of attachment. ξ: configuration not given here. NMeN = CN[C@@H](CC(N)=O)C(=O)O; NMeV = CN[C@H](C(=O)O)C(C)C; ξNMeV = CNC(C(=O)O)C(C)C; Boc = CC(C)(C)OC(=O)*; ξNMeA = CNC(C)C(=O)O

Tests used:
Assay in all cases: inhibition of tumour cell growth, NCI panel, 48 h
ACHN = system: ACHN
BT-549 = system: BT-549
CCRF-CEM = system: CCRF-CEM
DU-145 = system: DU-145
HCT-116 = system: HCT-116
HT-29 = system: HT-29
K562 = system: K562
KM12 = system: KM12
M14 = system: M14
MCF7 = system: MCF7
MDA-MB-435 = system: MDA-MB-435
OVCAR-3 = system: OVCAR-3
PC-3 = system: PC-3
RPMI-8226 = system: RPMI-8226
RXF 393 = system: RXF 393
SK-MEL-28 = system: SK-MEL-28
SK-MEL-2 = system: SK-MEL-2
SN12C = system: SN12C
TK-10 = system: TK-10
Hs-578T = system: Hs-578T

SMILES | GI50 (ACHN) | GI50 (BT-549) | GI50 (CCRF-CEM) | GI50 (DU-145) | GI50 (HCT-116) | GI50 (HT-29) | GI50 (K562) | GI50 (KM12) | GI50 (M14) | GI50 (MCF7) | GI50 (MDA-MB-435) | GI50 (OVCAR-3) | GI50 (PC-3) | GI50 (RPMI-8226) | GI50 (RXF 393) | GI50 (SK-MEL-28) | GI50 (SK-MEL-2) | GI50 (SN12C) | GI50 (TK-10) | GI50 (Hs-578T)
COC(=O)C(C)N(C)C(=O)[C@H](CC(N)=O)N(C)C(=O)[C@@H]1CCCN1C(=O)[C@H](C(C)C)N(C)C(=O)C(C(C)C)N(C)C(=O)[C@@H](NC(=O)OC(C)(C)C)C(C)C (stereo partly specified) (Boc-V[ξNMeV][NMeV]P[NMeN][ξNMeA]-OMe) | > 50 µM (inactive) | > 50 µM (inactive) | > 50 µM (inactive) | > 50 µM (inactive) | 30.3 µM (inactive) | > 50 µM (inactive) | 43.4 µM (inactive) | > 100 µM (inactive) | > 50 µM (inactive) | > 50 µM (inactive) | > 50 µM (inactive) | > 50 µM (inactive) | 11.4 µM (inactive) | > 50 µM (inactive) | > 50 µM (inactive) | > 50 µM (inactive) | > 50 µM (inactive) | > 50 µM (inactive) | > 50 µM (inactive) | 
COc1cc(C(C)c2cc3c(cc2OCCCCOc2cc4c(cc2C(C)c2cc(OC)c(OC)c(OC)c2)OCO4)OCO3)cc(OC)c1OC (stereo unspecified) | 69.5 µM (inactive) |  | 48.3 µM (inactive) |  | 31.7 µM (inactive) | 68.9 µM (inactive) | 28.2 µM (inactive) | 33 µM (inactive) | 24.5 µM (inactive) |  |  | 21.7 µM (inactive) |  | 25.5 µM (inactive) | 17.6 µM (inactive) | 71 µM (inactive) | 42.3 µM (inactive) | 29.6 µM (inactive) | > 100 µM (inactive) | 
O/N=C1/COC(C(F)(F)F)(C(F)(F)F)C1 | > 100 µM (inactive) |  |  | > 100 µM (inactive) | > 100 µM (inactive) | > 100 µM (inactive) |  | > 100 µM (inactive) | > 100 µM (inactive) | > 100 µM (inactive) | > 100 µM (inactive) | > 100 µM (inactive) | > 100 µM (inactive) | > 100 µM (inactive) | > 100 µM (inactive) | > 100 µM (inactive) | > 100 µM (inactive) | > 100 µM (inactive) | > 100 µM (inactive) | > 100 µM (inactive)
C/C(=N\N(C)C)C(CN1CCCCC1)C(c1ccccc1)c1c(O)c2ccccc2oc1=O (stereo unspecified) | > 100 µM (inactive) |  | > 100 µM (inactive) |  | > 100 µM (inactive) | > 100 µM (inactive) | > 100 µM (inactive) | > 100 µM (inactive) | > 100 µM (inactive) |  |  | > 100 µM (inactive) |  | > 100 µM (inactive) | > 100 µM (inactive) | > 100 µM (inactive) | > 100 µM (inactive) | > 100 µM (inactive) | > 100 µM (inactive) | 
COc1cc(/C=C2\CCC(C)(CN(C)C)C2=O)cc(OC)c1OC (stereo unspecified) | > 100 µM (inactive) |  | 52.4 µM (inactive) |  | > 79.3 µM (inactive) | > 100 µM (inactive) | 63.7 µM (inactive) | > 100 µM (inactive) | > 100 µM (inactive) |  |  | > 100 µM (inactive) |  | 40.8 µM (inactive) | > 100 µM (inactive) | > 100 µM (inactive) | > 100 µM (inactive) | > 100 µM (inactive) | > 100 µM (inactive) | 
COc1ccc([C@]23CCN(S(=O)(=O)c4ccc(C)cc4)[C@H]2[C@H](CO)C2(CC3)OCC(C)(C)CO2)cc1OC | > 100 µM (inactive) | > 100 µM (inactive) | > 100 µM (inactive) | > 100 µM (inactive) | > 100 µM (inactive) | > 100 µM (inactive) | > 100 µM (inactive) | > 100 µM (inactive) | > 100 µM (inactive) | > 100 µM (inactive) | > 100 µM (inactive) | > 100 µM (inactive) | > 100 µM (inactive) | > 100 µM (inactive) | 98.6 µM (inactive) | > 100 µM (inactive) | > 100 µM (inactive) | > 100 µM (inactive) | > 100 µM (inactive) | 
CCOP(=O)(OCC)/C(C#N)=C/c1ccccn1 | > 100 µM (inactive) |  | > 100 µM (inactive) | > 100 µM (inactive) | > 100 µM (inactive) | > 100 µM (inactive) | > 100 µM (inactive) | > 100 µM (inactive) | > 100 µM (inactive) | > 100 µM (inactive) | > 100 µM (inactive) | > 100 µM (inactive) |  | > 100 µM (inactive) | > 100 µM (inactive) | > 100 µM (inactive) |  | > 100 µM (inactive) | > 100 µM (inactive) | > 100 µM (inactive)
C1CCN(C2OC3C(COC3N3CCCCC3)OC2OC2CCO[C@@H]2N2CCCCC2)CC1 (stereo partly specified) | 25.9 µM (inactive) |  | 5.11 µM (inactive) |  | 34.7 µM (inactive) | 89.1 µM (inactive) | 28.4 µM (inactive) | 78.5 µM (inactive) | 40.6 µM (inactive) |  |  | 24.8 µM (inactive) |  | 17.9 µM (inactive) | 8.18 µM (inactive) | 57.9 µM (inactive) | 20.8 µM (inactive) | 43.1 µM (inactive) | 80.9 µM (inactive) | 
N#Cc1cccc(/C=N/C23CC4CC(CC(C4)C2)C3)c1 | > 100 µM (inactive) |  | 62.5 µM (inactive) |  | 57.3 µM (inactive) | > 100 µM (inactive) | 38.4 µM (inactive) | > 100 µM (inactive) | > 100 µM (inactive) |  |  | > 100 µM (inactive) |  | 52.2 µM (inactive) | > 100 µM (inactive) | > 100 µM (inactive) | > 100 µM (inactive) | > 100 µM (inactive) | > 100 µM (inactive) | 
COC(=O)[C@@H](NC1(c2ccccc2)c2ccccc2-c2ccccc21)[C@H](OC(=O)[C@H]1CCCN1S(=O)(=O)c1ccccc1)C(=O)OC | > 100 µM (inactive) |  | > 100 µM (inactive) | > 100 µM (inactive) | > 100 µM (inactive) | > 100 µM (inactive) | > 100 µM (inactive) | > 100 µM (inactive) | > 100 µM (inactive) | > 100 µM (inactive) | > 100 µM (inactive) | > 100 µM (inactive) | > 100 µM (inactive) |  | > 100 µM (inactive) | > 100 µM (inactive) | 39.8 µM (inactive) | > 100 µM (inactive) | > 100 µM (inactive) | 
CC1=C(C(=O)Nc2ccc([N+](=O)[O-])cc2)C(c2cccc([N+](=O)[O-])c2)C(C(=O)Nc2ccc([N+](=O)[O-])cc2)=C(C)N1 | 20 µM (inactive) |  | 12.6 µM (inactive) |  | 5.97 µM (inactive) | 21.9 µM (inactive) | 9.93 µM (inactive) | 12.1 µM (inactive) | 24.3 µM (inactive) |  |  | 44.5 µM (inactive) |  | 7.78 µM (inactive) | 16.2 µM (inactive) | 30.7 µM (inactive) | 33.1 µM (inactive) | 30.5 µM (inactive) | 37.5 µM (inactive) | 
COC1=CC(=O)C(C2(OC(C)C)OC(=O)C(Cl)=C2Cl)=CC1=O (stereo unspecified) | 51.4 µM (inactive) |  | 82.4 µM (inactive) | > 100 µM (inactive) | > 100 µM (inactive) | > 100 µM (inactive) | < 0.01 µM (active) | > 100 µM (inactive) | > 100 µM (inactive) | > 100 µM (inactive) | 41.3 µM (inactive) | > 100 µM (inactive) | > 100 µM (inactive) | > 100 µM (inactive) | > 100 µM (inactive) | > 100 µM (inactive) | 29.4 µM (inactive) | > 100 µM (inactive) | > 100 µM (inactive) | > 100 µM (inactive)
c1cc2c(cnc3cscc32)s1 | > 100 µM (inactive) |  | > 100 µM (inactive) |  | > 100 µM (inactive) | > 100 µM (inactive) | > 100 µM (inactive) | > 100 µM (inactive) | > 100 µM (inactive) |  |  | > 100 µM (inactive) |  | > 100 µM (inactive) | > 100 µM (inactive) | > 100 µM (inactive) | > 100 µM (inactive) | > 100 µM (inactive) | > 100 µM (inactive) | 
C=C1C(=O)OC2/C=C(/C)C3(O)OC(C)(CC(OC(=O)C(C)C)C12)CC3OC(C)=O (stereo unspecified) | 2.3 µM (inactive) | 5.79 µM (inactive) | 2.79 µM (inactive) | 8.26 µM (inactive) | 5.3 µM (inactive) | 4.55 µM (inactive) | 2.96 µM (inactive) | 16.2 µM (inactive) | 6.92 µM (inactive) | 3.7 µM (inactive) | 3.96 µM (inactive) | 11.5 µM (inactive) | 13.7 µM (inactive) | 4.43 µM (inactive) | 1.47 µM (inactive) | 7.48 µM (inactive) | 12 µM (inactive) | 4.9 µM (inactive) | 5.82 µM (inactive) | 
COC12CC(O)=C(C(C)=O)C(=O)C1(C)c1c(OC(C)=O)c(C)c(O)c(C(C)=O)c1O2 (stereo unspecified) | 12.3 µM (inactive) |  | 8.41 µM (inactive) |  | 21 µM (inactive) | 20.5 µM (inactive) | 16.9 µM (inactive) | 12 µM (inactive) | 22.5 µM (inactive) |  |  | 14.1 µM (inactive) |  | 7.71 µM (inactive) | 14.7 µM (inactive) | 16 µM (inactive) | 19 µM (inactive) | 11.6 µM (inactive) | 25.4 µM (inactive) | 
CS(=O)(=O)c1ccc(C(=O)O[C@@H]2C(=O)N3CC[C@H]4OC(O)[C@@H]2[C@H]43)cc1 (stereo partly specified) | > 100 µM (inactive) | > 100 µM (inactive) |  | > 100 µM (inactive) | 64.7 µM (inactive) | > 100 µM (inactive) | > 100 µM (inactive) | > 100 µM (inactive) | > 100 µM (inactive) | > 100 µM (inactive) | > 100 µM (inactive) | > 100 µM (inactive) | > 100 µM (inactive) | > 100 µM (inactive) | > 100 µM (inactive) | > 100 µM (inactive) | > 100 µM (inactive) |  | > 100 µM (inactive) | 
